Measured values taken from US4746349A, “Method and compositions for suppressing the nitrification of ammonium in plant growth medium” (American Cyanamid Company, priority 1986, dated 1988).
Structures can show the parent of a compound that is named as a salt.

Columns and labels:
Nitrobacter spp. = test: Nitrite nitrogen in ammonium amended soil incubated at 25° C.; conditions: soil 25° C., 200 ppm N
Description: Determination of nitrite nitrogen and nitrate nitrogen in soil prepared in Example 1 above, which is amended with 200 ppm of nitrogen as aqueous ammonium sulfate, […], is determined using the nitrite and nitrate analysis of the American Organization of Analytical Chemists (AOAC pp. 653-655).

Nitrosomonas spp. = test: Nitrification of ammonium in soil incubated at 25° C. (ammonium recovery, nitrate accumulation); conditions: soil 25° C.; for Concentration of nitrate nitrogen / Recovery of Ammonium Nitrogen: 200 ppm N
Description: In these evaluations, one hundred grams (100 g) of oven dry, silt loam field soil with low residual nitrogen is added to a 6×12 cm screw-capped glass jar for each sampling date to provide an optimum environment for nitrification.
Two replicates of each treatment-sampling date are established. The soil is adjusted to 50% water saturation with an aqueous solution of ammonium sulfate at 200 ppm N and the chemical to be tested as a nitrification inhibitor at rates of from 0.10 to 0.50 ppm.
Incubation is at either 25° C. or 38° C. for 0, 1, 2, 4, 7, 9, 12, 16 or 20 weeks. Inorganic N is extracted by adding 2M KCl (10:1 v/w) and shaking for one hour, allowing settling for fifteen minutes. A 10 ml aliquot from the supernatant is assayed for ammonium, nitrite and nitrate by standard steam distillation methods (AOAC, pp. 653-655). Nitrapyrin (0.5 ppm) is used as a nitrification inhibitor for comparison. Benzyl alcohol, acetone, and a non-N amended soil are run as controls and as a check on mineralization.
Nitrification: Ammonium recovery and nitrate accumulation are indicative of nitrification, and data obtained with test compounds are reported in Tables I and II.

CC(C)=O [Acetone]
Concentration of nitrite nitrogen (Nitrobacter spp.; 5%, week 0): 6 ppm | Concentration of nitrite nitrogen (Nitrobacter spp.; 5%, week 1): 4 ppm | Concentration of nitrite nitrogen (Nitrobacter spp.; 5%, week 2): -1 ppm | Concentration of nitrite nitrogen (Nitrobacter spp.; 5%, week 4): 9 ppm | Concentration of nitrite nitrogen (Nitrobacter spp.; 5%, week 7): 56 ppm | Concentration of nitrite nitrogen (Nitrobacter spp.; 5%, week 9): 5 ppm | Concentration of nitrite nitrogen (Nitrobacter spp.; 5%, week 12): 20 ppm | Concentration of nitrite nitrogen (Nitrobacter spp.; 5%, week 16): 10 ppm | Concentration of nitrite nitrogen (Nitrobacter spp.; 5%, week 20): 11 ppm | Effect on nitrification, in words (Nitrosomonas spp.; 5%): initial rate of nitrification is slowed slightly | Concentration of nitrate nitrogen (Nitrosomonas spp.; 5%, week 0): 19 PPM | Recovery of Ammonium Nitrogen (Nitrosomonas spp.; 5%, week 0): 194 PPM | Concentration of nitrate nitrogen (Nitrosomonas spp.; 5%, week 1): 7 PPM | Recovery of Ammonium Nitrogen (Nitrosomonas spp.; 5%, week 1): 138 PPM | Concentration of nitrate nitrogen (Nitrosomonas spp.; 5%, week 2): 0 PPM | Recovery of Ammonium Nitrogen (Nitrosomonas spp.; 5%, week 2): 122 PPM | Concentration of nitrate nitrogen (Nitrosomonas spp.; 5%, week 4): 36 PPM | Recovery of Ammonium Nitrogen (Nitrosomonas spp.; 5%, week 4): 127 PPM | Concentration of nitrate nitrogen (Nitrosomonas spp.; 5%, week 7): 75 PPM | Recovery of Ammonium Nitrogen (Nitrosomonas spp.; 5%, week 7): 8 PPM | Concentration of nitrate nitrogen (Nitrosomonas spp.; 5%, week 9): 100 PPM | Recovery of Ammonium Nitrogen (Nitrosomonas spp.; 5%, week 9): 1 PPM | Concentration of nitrate nitrogen (Nitrosomonas spp.; 5%, week 12): 155 PPM | Recovery of Ammonium Nitrogen (Nitrosomonas spp.; 5%, week 12): 1 PPM | Concentration of nitrate nitrogen (Nitrosomonas spp.; 5%, week 16): 165 PPM | Recovery of Ammonium Nitrogen (Nitrosomonas spp.; 5%, week 16): 1 PPM

CC[C@@]1([C@@H]2O[C@@H]([C@H]3O[C@@](O)(CO)[C@H](C)C[C@@H]3C)C[C@@H]2C)CC[C@H]([C@]2(C)CC[C@]3(C[C@H](O)[C@@H](C)[C@@H]([C@@H](C)[C@@H](OC)[C@H](C)C(=O)O)O3)O2)O1 [Monensin sodium salt, Monensin]
Concentration of nitrite nitrogen (Nitrobacter spp.; 0.10 ppm, week 0): 9 ppm | Concentration of nitrite nitrogen (Nitrobacter spp.; 0.10 ppm, week 1): -4 ppm | Concentration of nitrite nitrogen (Nitrobacter spp.; 0.10 ppm, week 2): 4 ppm | Concentration of nitrite nitrogen (Nitrobacter spp.; 0.10 ppm, week 4): 11 ppm | Concentration of nitrite nitrogen (Nitrobacter spp.; 0.10 ppm, week 7): 7 ppm | Concentration of nitrite nitrogen (Nitrobacter spp.; 0.10 ppm, week 9): 16 ppm | Concentration of nitrite nitrogen (Nitrobacter spp.; 0.10 ppm, week 12): 18 ppm | Concentration of nitrite nitrogen (Nitrobacter spp.; 0.10 ppm, week 16): 7 ppm | Concentration of nitrite nitrogen (Nitrobacter spp.; 0.10 ppm, week 20): 11 ppm | Concentration of nitrite nitrogen (Nitrobacter spp.; 0.25 ppm, week 0): 6 ppm | Concentration of nitrite nitrogen (Nitrobacter spp.; 0.25 ppm, week 1): 3 ppm | Concentration of nitrite nitrogen (Nitrobacter spp.; 0.25 ppm, week 2): 6 ppm | Concentration of nitrite nitrogen (Nitrobacter spp.; 0.25 ppm, week 4): 7 ppm | Concentration of nitrite nitrogen (Nitrobacter spp.; 0.25 ppm, week 7): -4 ppm | Concentration of nitrite nitrogen (Nitrobacter spp.; 0.25 ppm, week 9): 17 ppm | Concentration of nitrite nitrogen (Nitrobacter spp.; 0.25 ppm, week 12): 30 ppm | Concentration of nitrite nitrogen (Nitrobacter spp.; 0.25 ppm, week 16): 3 ppm | Concentration of nitrite nitrogen (Nitrobacter spp.; 0.25 ppm, week 20): 90 ppm | Concentration of nitrite nitrogen (Nitrobacter spp.; 0.50 ppm, week 0): 6 ppm | Concentration of nitrite nitrogen (Nitrobacter spp.; 0.50 ppm, week 1): 5 ppm | Concentration of nitrite nitrogen (Nitrobacter spp.; 0.50 ppm, week 2): 6 ppm | Concentration of nitrite nitrogen (Nitrobacter spp.; 0.50 ppm, week 4): 0 ppm | Concentration of nitrite nitrogen (Nitrobacter spp.; 0.50 ppm, week 7): 2 ppm | Concentration of nitrite nitrogen (Nitrobacter spp.; 0.50 ppm, week 9): -7 ppm | Concentration of nitrite nitrogen (Nitrobacter spp.; 0.50 ppm, week 12): 4 ppm | Concentration of nitrite nitrogen (Nitrobacter spp.; 0.50 ppm, week 16): 2 ppm | Concentration of nitrite nitrogen (Nitrobacter spp.; 0.50 ppm, week 20): 22 ppm | Concentration of nitrate nitrogen (Nitrosomonas spp.; 0.10 ppm, week 0): 18 PPM | Concentration of nitrate nitrogen (Nitrosomonas spp.; 0.10 ppm, week 1): 17 PPM | Recovery of Ammonium Nitrogen (Nitrosomonas spp.; 0.10 ppm, week 1): 175 PPM | Concentration of nitrate nitrogen (Nitrosomonas spp.; 0.10 ppm, week 2): 17 PPM | Recovery of Ammonium Nitrogen (Nitrosomonas spp.; 0.10 ppm, week 2): 175 PPM | Concentration of nitrate nitrogen (Nitrosomonas spp.; 0.10 ppm, week 4): 45 PPM | Recovery of Ammonium Nitrogen (Nitrosomonas spp.; 0.10 ppm, week 4): 155 PPM | Concentration of nitrate nitrogen (Nitrosomonas spp.; 0.10 ppm, week 7): 199 PPM | Recovery of Ammonium Nitrogen (Nitrosomonas spp.; 0.10 ppm, week 7): 17 PPM | Concentration of nitrate nitrogen (Nitrosomonas spp.; 0.10 ppm, week 9): 220 PPM | Recovery of Ammonium Nitrogen (Nitrosomonas spp.; 0.10 ppm, week 9): 3 PPM | Concentration of nitrate nitrogen (Nitrosomonas spp.; 0.10 ppm, week 12): 206 PPM | Recovery of Ammonium Nitrogen (Nitrosomonas spp.; 0.10 ppm, week 12): 2 PPM | Concentration of nitrate nitrogen (Nitrosomonas spp.; 0.10 ppm, week 16): 213 PPM | Recovery of Ammonium Nitrogen (Nitrosomonas spp.; 0.10 ppm, week 16): 5 PPM | Specific inhibition of nitrification through activity against Nitrosomonas spp., in words (Nitrosomonas spp.; 0.1 to 0.5 ppm): appear to specifically inhibit nitrification through activity against Nitrosomonas spp. | Concentration of nitrate nitrogen (Nitrosomonas spp.; 0.25 ppm, week 0): 19 PPM | Concentration of nitrate nitrogen (Nitrosomonas spp.; 0.25 ppm, week 1): 22 PPM | Recovery of Ammonium Nitrogen (Nitrosomonas spp.; 0.25 ppm, week 1): 179 PPM | Concentration of nitrate nitrogen (Nitrosomonas spp.; 0.25 ppm, week 2): 21 PPM | Concentration of nitrate nitrogen (Nitrosomonas spp.; 0.25 ppm, week 4): 23 PPM | Concentration of nitrate nitrogen (Nitrosomonas spp.; 0.25 ppm, week 7): 28 PPM | Concentration of nitrate nitrogen (Nitrosomonas spp.; 0.25 ppm, week 9): 54 PPM | Recovery of Ammonium Nitrogen (Nitrosomonas spp.; 0.25 ppm, week 9): 157 PPM | Concentration of nitrate nitrogen (Nitrosomonas spp.; 0.25 ppm, week 12): 70 PPM | Recovery of Ammonium Nitrogen (Nitrosomonas spp.; 0.25 ppm, week 12): 124 PPM | Concentration of nitrate nitrogen (Nitrosomonas spp.; 0.25 ppm, week 16): 158 PPM | Recovery of Ammonium Nitrogen (Nitrosomonas spp.; 0.25 ppm, week 16): 74 PPM | Concentration of nitrate nitrogen (Nitrosomonas spp.; 0.25 ppm, week 20): 121 PPM | Recovery of Ammonium Nitrogen (Nitrosomonas spp.; 0.25 ppm, week 20): 21 PPM | Concentration of nitrate nitrogen (Nitrosomonas spp.; 0.50 ppm, week 0): 18 PPM | Concentration of nitrate nitrogen (Nitrosomonas spp.; 0.50 ppm, week 1): 18 PPM | Recovery of Ammonium Nitrogen (Nitrosomonas spp.; 0.50 ppm, week 1): 176 PPM | Concentration of nitrate nitrogen (Nitrosomonas spp.; 0.50 ppm, week 2): 21 PPM | Concentration of nitrate nitrogen (Nitrosomonas spp.; 0.50 ppm, week 4): 22 PPM | Concentration of nitrate nitrogen (Nitrosomonas spp.; 0.50 ppm, week 7): 23 PPM | Concentration of nitrate nitrogen (Nitrosomonas spp.; 0.50 ppm, week 9): 19 PPM | Concentration of nitrate nitrogen (Nitrosomonas spp.; 0.50 ppm, week 12): 22 PPM | Concentration of nitrate nitrogen (Nitrosomonas spp.; 0.50 ppm, week 16): 121 PPM | Recovery of Ammonium Nitrogen (Nitrosomonas spp.; 0.50 ppm, week 16): 110 PPM | Concentration of nitrate nitrogen (Nitrosomonas spp.; 0.50 ppm, week 20): 72 PPM | Recovery of Ammonium Nitrogen (Nitrosomonas spp.; 0.50 ppm, week 20): 143 PPM
